These results are taken from PMC6891756, “Synthesis and Biological Evaluation of Novel Aminochalcones as Potential Anticancer and Antimicrobial Agents” (Molecules, 2019).

Structures are written as SMILES. In brackets after ≈: the same amount, converted by molar mass.

Data set [1] deals with HT-29. The experiment in a line: SRB antiproliferative assay, HT-29. The class given is cell-based, human. The note with it: SRB, 48 h, 1–100 µg·mL^−1, ND = not detected in the tested concentration range. The method in brief: (§1)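 IC50 values come from sulforhodamine B staining of colon cancer cells after 48 h with aminochalcones (1–100 µg·mL^−1). Seeding was 5·10^3 per well; medium with 10% FBS, 37 °C.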

Data set [2] concerns LS180. The experiment in a line: SRB antiproliferative assay, LS180. The class given is cell-based, human. The note with it: 1–100 µg·mL^−1, ND = not detected in the tested concentration range. The method, boiled down: as §1
Data set [3] deals with LoVo. The data set can be described thus: SRB antiproliferative assay, LoVo. Conditions: 48 h, 1–100 µg·mL^−1, ND = not detected in the tested concentration range. The class given is cell-based, human. The method, boiled down: as §1
In data set [4] the test system is LoVo/DX. The data set can be described thus: SRB antiproliferative assay, LoVo/DX. The format is cell-based, human. Conditions: 48 h, 1–100 µg·mL^−1, ND = not detected in the tested concentration range. The method in brief: as §1
Data set [5] concerns green monkey kidney fibroblasts COS7. The experiment in a line: SRB assay, normal fibroblasts COS7. The note with it: 48 h, normal cell line, ND = not detected in the tested concentration range. The format is cell-based. The method, boiled down: (§2)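 Antiproliferative effect is determined by SRB after 48 h incubation with compound concentrations from 1 to 100 µg·mL^−1, in quadruplicate; IC50 averaged over three experiments.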

The nature of data set [6]: SRB assay, normal fibroblasts COS7. The class given is cell-based, green monkey. The note with it: green monkey, COS7 kidney fibroblasts (normal cell line), ND = not detected in the tested concentration range. The method in brief:
as §2

For data set [7], the system named is Escherichia coli ATCC10536. The data set can be described thus: Microbial growth curve screening, E. coli. The class given is cell-based. Conditions: 0.1% (w/v), OD at 560 nm, control 1.61. The method in brief:
(§3)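 First, microbial suspension and DMSO-dissolved compound (final 0.1% w/v) were combined in medium: nutrient broth for bacteria, YM for fungi. Plates were then incubated at 28 °C under shaking while absorbance at 560 nm was logged at 30 min intervals over 2–3 days. Finally, mean curves gave ΔOD against controls.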

Data set [8] has as its system Staphylococcus aureus DSM799. The experiment in a line: Microbial growth curve screening, S. aureus. The class given is cell-based. Conditions: 0.1% (w/v), OD at 560 nm, control 1.67. The method in brief:
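Growth inhibition is expressed as ΔOD, compared with cultures in medium containing DMSO alone. Triplicate wells with 0.1% (w/v) compound were followed at 560 nm for 2–3 days at 28 °C.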

For data set [9], the system named is Alternaria alternata CBS1526. The experiment in a line: Microbial growth curve screening, A. alternata. The format is cell-based. Conditions: 0.1% (w/v), OD at 560 nm, control 1.86. The method, boiled down:
as §3

Data set [10] concerns Fusarium linii KB-F1. The data set can be described thus: Microbial growth curve screening, F. linii. The class given is cell-based. The note with it: 0.1% (w/v), OD at 560 nm, control 1.95. The method in brief:
as §3

In data set [11] the test system is Escherichia coli ATCC10536. The experiment in a line: MIC evaluation (broth method), E. coli. The class given is cell-based. The note with it: 48–72 h, read-out: Minimal inhibitory concentration E. coli. The method in brief:
(§4)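 Microdilution, YM (yeast/fungi) or nutrient broth (bacteria); 10^5 cell·mL^−1; compounds in DMSO; 25 °C fungi / 30 °C yeast, bacteria; 48–72 h; A560; MIC = no growth, agar-plate confirmed; n=3.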

Data set [12] relates to Staphylococcus aureus DSM799. The experiment in a line: MIC evaluation (broth method), S. aureus. The note with it: 48–72 h, read-out: Minimal inhibitory concentration S. aureus. The format is cell-based. The method in brief: as §4
Data set [13] concerns Candida albicans DSM1386. The data set can be described thus: MIC evaluation (broth method), C. albicans. Conditions: DSM1386, broth method, 48–72 h, read-out: Minimal inhibitory concentration C. albicans. The format is cell-based. The method in brief:
as §4

Data set [14] has as its system Alternaria alternata CBS1526. The experiment in a line: MIC evaluation (broth method), A. alternata. The format is cell-based. Conditions: Alternaria alternata, CBS1526, 48–72 h, read-out: Minimal inhibitory concentration A. alternata. How it is done:
(§5) Sterile 96-well microtiter plates (Sarstedt) with nutrient broth (for bacteria) (Biocorp) or YM medium (for yeast and filamentous fungi) were inoculated with a standardized cell suspension of bacteria and yeast or fungal spores of 10^5 cell·mL^−1, and supplemented with aminochalcones dissolved in DMSO. […] All analysis were conducted in triplicates. The plates were incubated at 30 °C (bacteria and yeast) or 25 °C (filamentous fungi) for 48–72 h. The results were measured with the Spark® Multimode Microplate Reader (Tecan, Männedorf, Switzerland) at a 560 nm wavelength. The minimal inhibitory concentration was defined as the lowest concentration of a tested compound that completely restricted the growth of the microorganism. In order to verify the obtained results, microbial cultures subjected to each concentration of aminochalcone were inoculated onto nutrient agar or YM plates and incubated as described above. The lack of growth on agar plate was a confirmation of the MIC of the tested compound. The resulting MIC values were compared with the reference substances: oxytetracycline (against bacteria), cycloheximide (against yeast) and nystatin (against fungi) (Sigma Aldrich).

Data set [15] deals with Fusarium linii KB-F1. The data set can be described thus: MIC evaluation (broth method), F. linii. The class given is cell-based. Conditions: Fusarium, KBF1, 48–72 h, read-out: Minimal inhibitory concentration F. linii. How it is done:
as §5

In data set [16] the test system is Aspergillus niger DSM1957. The experiment in a line: MIC evaluation (broth method), A. niger. The class given is cell-based. The note with it: Aspergillus niger, DSM1957, 48–72 h, read-out: Minimal inhibitory concentration A. niger. How it is done:
as §5

Data set [17] concerns all tested microorganisms. The data set can be described thus: MIC evaluation, all tested strains (pooled statement). The format is cell-based. Conditions: read-out: MIC values against all tested microorganisms. How it is done: as §5
For data set [18], the system named is all tested microorganisms. The experiment in a line: Growth curve screening, all tested microorganisms (pooled statement). Conditions: 0.1% (w/v). The format is cell-based. How it is done: The antimicrobial screening tests were performed on two strains of bacteria: E. coli ATCC10536 and S. aureus DSM799, strain of yeast C. albicans DSM1386 and three strains of fungi: F. linii KB-F1, A. alternata CBS1526 and A. niger DSM1957. All microorganisms were obtained from the collection of the Faculty of Biotechnology and Food Microbiology, Wrocław University of Environmental and Life Sciences. The bacteria were cultured in nutrient broth (Biocorp, Warsaw, Poland), yeast and fungi in YM medium (3 g yeast extract, 3 g malt extract, 5 g bacteriological peptone and 10 g of glucose dissolved in 1 L of distilled water). The tests were carried out in 100-well microtiter plates. […] The optical density of the cell suspension was measured on Bioscreen C (Automated Growth Curve Analysis System Lab System, Vantaa, Finland) at 560 nm automatically, at regular intervals of 30 min for 2–3 days. […] To prepare the growth curves for each strain, the mean values of the absorbance in a function of time were used. The resulting antimicrobial activity was expressed as the increase of optical density (ΔOD) and was compared to that of the control cultures in the medium supplemented with dimethyl sulfoxide and also with reference substances: oxytetracycline (against bacteria), cycloheximide (against yeast) and nystatin (against fungi) (Sigma Aldrich).

Data set [19] relates to human breast cancer cell line T47D. Further details: method as in earlier work. The note with it: cited from earlier work.

On to `N.N.[Cl][Pt][Cl]` [Compound 19, Cisplatin, reference compound], for which, in data set [1], the “IC50 HT-29” value amounted to 16.73 ± 0.58 µg/mL. For the same molecule, in data set [2] (48 h), the “IC50 LS180” value was 1.49 ± 0.13 µg/mL. Besides, the “IC50 LoVo” value in [3] was 2.09 ± 0.12 µg/mL. Further, the “IC50 LoVo/DX” value in data set [4] was found to be 2.03 ± 0.17 µg/mL. In data set [5], the “IC50 COS7” value amounted to 3.86 ± 0.62 µg/mL.
Turning to `Nc1ccc(C(=O)/C=C/c2ccccc2)cc1` [Compound 3, 4′-Aminochalcone], the IC50 in [1] (Homo sapiens, HT-29) was found to be 1.98 ± 0.18 µg/mL (≈ 8.87 µM); in data set [2] (Homo sapiens, LS180, 48 h), 4.68 ± 0.09 µg/mL (≈ 21 µM); in [3] (Homo sapiens, LoVo) it was 2.84 ± 0.09 µg/mL (≈ 12.7 µM); in [4] (Homo sapiens, LoVo/DX), 2.26 ± 0.05 µg/mL (≈ 10.1 µM). The molecule also gave an IC50 at 48 h in data set [6] of 3.85 ± 0.28 µg/mL (≈ 17.2 µM). Moreover, the “∆OD E. coli” value in data set [7] was 0.0. In addition, the “∆OD S. aureus” value in [8] is given as 0.0. For the same molecule, the “∆OD A. alternata” value in data set [9] came out at 0.0. Also, in data set [10], the “∆OD F. linii” value is given as 0. The MIC in data set [11] is 0.5 µg/mL (≈ 2.24 µM); in data set [12] it was 0.25 µg/mL (≈ 1.12 µM); in data set [13], 0.5 µg/mL (≈ 2.24 µM); in data set [14], 0.5 µg/mL (≈ 2.24 µM); in data set [15], 0.25 µg/mL (≈ 1.12 µM); in [16], 0.5 µg/mL (≈ 2.24 µM). In addition, the MIC in data set [17] was in the range of 0.25 to 0.5 µg/mL (≈ 1.12 to 2.24 µM). In addition, the “growth inhibition of all tested microorganisms” value in [18] is listed as “complete inhibition of the growth”. Moreover, in data set [19], the “IC50 T47D (literature)” value is 5.28 µg/mL (≈ 23.6 µM).
